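Protocol summary: plate cells (96-well), add compound at 5 concentrations, incubate 48 h, interpolate endpoints linearly. GI50 is the concentration that inhibits growth by half.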 Active and inactive are the calls of the source. No stated cut-off is given here; in the data, active = GI50 up to about 1.1 µM and inactive = higher.
Columns and labels:
Experiment in all cases: NCI tumour cell line growth inhibition, 48 h
[1] = system: CCRF-CEM
[2] = system: IGROV-1
[3] = system: KM12
[4] = system: M14
[5] = system: MOLT-4
[6] = system: OVCAR-5
[7] = system: SF-268
[8] = system: SF-539
[9] = system: SK-MEL-2
[10] = system: SNB-75
[11] = system: SNB-78
[12] = system: SW-620
[13] = system: TK-10
[14] = system: U-251
[15] = system: UACC-257
[16] = system: COLO 205
[17] = system: MDA-MB-231
[18] = system: NCI-H226
[19] = system: NCI/ADR-RES
[20] = system: M19-MEL

| SMILES | GI50 [1] | GI50 [2] | GI50 [3] | GI50 [4] | GI50 [5] | GI50 [6] | GI50 [7] | GI50 [8] | GI50 [9] | GI50 [10] | GI50 [11] | GI50 [12] | GI50 [13] | GI50 [14] | GI50 [15] | GI50 [16] | GI50 [17] | GI50 [18] | GI50 [19] | GI50 [20] |
| --- | --- | --- | --- | --- | --- | --- | --- | --- | --- | --- | --- | --- | --- | --- | --- | --- | --- | --- | --- | --- |
| Brc1cc2c(cc1C1SCCS1)OCO2 | > 100 µM (inactive) | > 100 µM (inactive) | > 100 µM (inactive) | > 100 µM (inactive) | 80.4 µM (inactive) | > 100 µM (inactive) | > 100 µM (inactive) | > 100 µM (inactive) | > 100 µM (inactive) | > 100 µM (inactive) | > 100 µM (inactive) | > 100 µM (inactive) | > 100 µM (inactive) | > 100 µM (inactive) | > 100 µM (inactive) | – | – | – | – | – |
| Nc1nc(N)c2c(n1)NC(c1ccccc1)CC(/C=C/c1ccc(Cl)cc1)=N2 (stereo not drawn) | 4.84 µM (inactive) | 2.72 µM (inactive) | 3.52 µM (inactive) | 11.6 µM (inactive) | 1.89 µM (inactive) | 17 µM (inactive) | 15.3 µM (inactive) | 15.5 µM (inactive) | 14.6 µM (inactive) | 18.5 µM (inactive) | – | 10.4 µM (inactive) | 2.56 µM (inactive) | 5.87 µM (inactive) | 2.25 µM (inactive) | 2.7 µM (inactive) | 3.23 µM (inactive) | 6.64 µM (inactive) | 3.15 µM (inactive) | – |
| N=c1oc2cc(O)ccc2cc1C(=O)Nc1ccccn1 | 27.8 µM (inactive) | 44.9 µM (inactive) | 55 µM (inactive) | 59.7 µM (inactive) | 1.78 µM (inactive) | > 100 µM (inactive) | 65.2 µM (inactive) | 92.9 µM (inactive) | 28.8 µM (inactive) | 36.5 µM (inactive) | – | 77.1 µM (inactive) | 41.9 µM (inactive) | 44.5 µM (inactive) | > 100 µM (inactive) | 14 µM (inactive) | 54.3 µM (inactive) | 90.6 µM (inactive) | 48.8 µM (inactive) | – |
| CCN(CC)CCCNc1nccc2c(C)c3[nH]c4ccncc4c(=O)c3cc12 | 0.746 µM (active) | 2.93 µM (inactive) | 3.52 µM (inactive) | 2.84 µM (inactive) | 0.33 µM (active) | 3.72 µM (inactive) | 0.643 µM (active) | 2.45 µM (inactive) | 2.89 µM (inactive) | 2.24 µM (inactive) | 2.2 µM (inactive) | 1.84 µM (inactive) | 3.18 µM (inactive) | 2.19 µM (inactive) | 6.84 µM (inactive) | 2.55 µM (inactive) | – | 2.24 µM (inactive) | – | – |
| NCCNCCCCCCNC(=O)c1cccc2cc3ccccc3nc12 | 1.03 µM (active) | 3.9 µM (inactive) | 2 µM (inactive) | 1.92 µM (inactive) | 0.838 µM (active) | 4.02 µM (inactive) | 2.72 µM (inactive) | 1.93 µM (inactive) | 2.87 µM (inactive) | 3.94 µM (inactive) | – | 1.49 µM (inactive) | 8.51 µM (inactive) | 1.64 µM (inactive) | 6.1 µM (inactive) | 2.75 µM (inactive) | 2.34 µM (inactive) | 1.95 µM (inactive) | 17.9 µM (inactive) | – |
| Cn1nc(-c2ccccc2)c(C(=O)/C=C/c2ccc(F)cc2)c(N2CCOCC2)c1=O | 17.7 µM (inactive) | 20.3 µM (inactive) | – | 21.8 µM (inactive) | 14.2 µM (inactive) | – | 19.1 µM (inactive) | 17.3 µM (inactive) | – | – | – | 21.3 µM (inactive) | 28.6 µM (inactive) | 16.7 µM (inactive) | – | 18.2 µM (inactive) | – | – | – | 18.5 µM (inactive) |
| COc1ccc(/C=N/Nc2nc3ccccc3c(=O)n2-c2ccccc2)cc1 | > 100 µM (inactive) | > 100 µM (inactive) | > 100 µM (inactive) | > 100 µM (inactive) | > 100 µM (inactive) | > 100 µM (inactive) | > 100 µM (inactive) | > 100 µM (inactive) | > 100 µM (inactive) | 86.5 µM (inactive) | – | > 100 µM (inactive) | > 100 µM (inactive) | > 100 µM (inactive) | > 100 µM (inactive) | > 100 µM (inactive) | > 100 µM (inactive) | > 100 µM (inactive) | > 100 µM (inactive) | – |
| Nn1c(Cc2ccc(Cl)cc2)n[nH]c1=O | > 100 µM (inactive) | > 100 µM (inactive) | > 100 µM (inactive) | > 100 µM (inactive) | > 100 µM (inactive) | > 100 µM (inactive) | > 100 µM (inactive) | > 100 µM (inactive) | > 100 µM (inactive) | > 100 µM (inactive) | – | > 100 µM (inactive) | > 100 µM (inactive) | > 100 µM (inactive) | > 100 µM (inactive) | > 100 µM (inactive) | > 100 µM (inactive) | > 100 µM (inactive) | > 100 µM (inactive) | – |

From ChEMBL document CHEMBL1201862, “PubChem BioAssay data set” (2004)
